Test results reported in PubChem BioAssay (NCI).
Values joined by “and” are separate entries in the source; they are usually repeats but may differ in a detail not shown here. Equal values may be shown once.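 Each compound was tested at five concentrations against cells in 96-well plates for 48 hours. Abbreviation: GI50, concentration required for 50% inhibition of growth. TGI: concentration producing complete growth inhibition.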

Key:
Assay in all cases: inhibition of tumour cell growth, NCI panel, 48 h
A498 renal = system: A498 renal
BT-549 breast = system: BT-549 breast
CCRF-CEM leukemia = system: CCRF-CEM leukemia
EKVX NSCLC = system: EKVX NSCLC
HCT-15 colon = system: HCT-15 colon
M14 melanoma = system: M14 melanoma
MCF7 breast = system: MCF7 breast
MDA-MB-231 breast = system: MDA-MB-231 breast
NCI-H460 lung = system: NCI-H460 lung
PC-3 prostate = system: PC-3 prostate

Structure (SMILES)	GI50 (A498 renal)	TGI (A498 renal)	GI50 (BT-549 breast)	TGI (BT-549 breast)	GI50 (CCRF-CEM leukemia)	TGI (CCRF-CEM leukemia)	GI50 (EKVX NSCLC)	TGI (EKVX NSCLC)	GI50 (HCT-15 colon)	TGI (HCT-15 colon)	GI50 (M14 melanoma)	TGI (M14 melanoma)	GI50 (MCF7 breast)	TGI (MCF7 breast)	GI50 (MDA-MB-231 breast)	TGI (MDA-MB-231 breast)	GI50 (NCI-H460 lung)	TGI (NCI-H460 lung)	GI50 (PC-3 prostate)	TGI (PC-3 prostate)
COc1cc(C(=O)/C=C/c2c[nH]c3ccccc23)cc(OC)c1OC	< 0.0119 µM	0.0414 µM	0.0288 µM	4.16 µM	0.0254 µM	14 µM	0.0605 µM	> 100 µM	< 0.0187 µM	19.4 µM	< 0.0155 µM	39.4 µM	0.0857 µM	15 µM	0.132 µM	12.4 µM	< 0.0191 µM	2.17 µM	< 0.0212 µM	27.9 µM
NS(=O)(=O)c1cccc(Nc2cc(-c3ccc(F)cc3)[nH]n2)c1	18.4 µM	> 25 µM	> 23.9 µM	> 25 µM	23 µM	> 25 µM	> 25 µM	> 25 µM	19.3 µM	> 25 µM	> 25 µM	> 25 µM	20.4 µM	> 25 µM	> 25 µM	> 25 µM	13.8 µM	> 25 µM	> 23.6 µM	> 25 µM
O=C(NOCCO)c1ccc2cncn2c1Nc1ccc(I)cc1F	0.00606 µM and < 0.01 µM	0.0542 µM and 0.043 µM	> 10 µM and 11.1 µM	> 91.7 µM	> 10 µM and 28.1 µM	> 100 µM	0.0629 µM	> 10 µM	> 2.24 µM and 1.72 µM	> 100 µM	0.00286 µM and < 0.01 µM		> 10 µM and 26.2 µM	> 100 µM	0.0343 µM and 0.0283 µM	> 100 µM	> 10 µM and 21.9 µM	> 100 µM	> 10 µM and 45.4 µM	> 100 µM
CO[C@H]1C[C@H](O[C@H]2CC[C@@]3(C)[C@H](CC[C@@H]4[C@@H]3CC[C@]3(C)[C@@H](C5=CC(=O)OC5)CC[C@]43O)C2)O[C@H](C)[C@H]1O		0.0589 µM		0.0175 µM		> 100 µM		0.0148 µM		0.0164 µM		0.0607 µM		0.134 µM		0.412 µM		0.0103 µM		0.0212 µM
CC1(C)C2CC(=O)C1(C)C(OCc1ccccc1)C2Br (stereo unspecified)	24.8 µM and > 100 µM	62.2 µM and > 100 µM	26.6 µM and 54.3 µM	67.4 µM and > 100 µM		49.1 µM and 56.1 µM		> 100 µM		31.1 µM and > 100 µM	23.4 µM and 54.8 µM	57.9 µM and > 100 µM		> 100 µM	18.5 µM and > 100 µM	42.9 µM and > 100 µM	20.2 µM and 48.5 µM	43.5 µM and > 100 µM		47.8 µM and > 100 µM
NP1(Oc2ccc(F)cc2)=NP(N)(Oc2ccc(F)cc2)=NP(Oc2ccc(F)cc2)(Oc2ccc(F)cc2)=N1 (stereo unspecified)		8.71 µM		7.44 µM		18.9 µM		19 µM		14.6 µM		19.4 µM		10.9 µM		23.4 µM		13.5 µM		16.4 µM
OC[C@H]1C[C@](O)(c2ccccc2Cl)[C@@H](c2ccccc2Cl)O1	22.9 µM	59.2 µM	16.9 µM	37 µM	27.8 µM	> 100 µM	19.2 µM	52.2 µM	28.4 µM	> 100 µM			27 µM	62.6 µM	18.6 µM	47.6 µM	19.8 µM	49.6 µM	24.2 µM	74.6 µM
COc1ccc2c(Cl)cc(NC(=S)Nc3ccccc3)nc2c1		48.1 µM		> 100 µM		90.9 µM		63.1 µM		> 100 µM		36.6 µM		> 100 µM		56.4 µM		> 100 µM		66.4 µM
Cc1ccc(C)c(N2CCN(c3ccncc3N)CC2)c1	3.65 µM	25.9 µM	21.9 µM	> 100 µM	21.5 µM	94.3 µM	10.8 µM	84.8 µM	5.61 µM	> 100 µM	23 µM	62.1 µM	10.3 µM	29.6 µM	14.3 µM	36.9 µM	13.7 µM	31.9 µM	14.2 µM	84.7 µM
CC1CCc2c(C(=O)Nc3ncc(Cc4cccc([N+](=O)[O-])c4)s3)csc2C1 (stereo unspecified)	0.267 µM	0.864 µM	1.25 µM	> 100 µM	0.612 µM	> 100 µM	1.11 µM	> 100 µM	0.389 µM	> 100 µM	0.4 µM	> 100 µM	0.268 µM	> 100 µM	1.03 µM	> 100 µM	0.491 µM	> 100 µM	0.618 µM	> 100 µM
CN(N=O)c1ccc(/C=C/c2ccnc3ccccc23)cc1		> 100 µM		> 100 µM		> 100 µM		> 100 µM		> 100 µM		> 100 µM		> 100 µM		> 100 µM		> 100 µM		> 100 µM
CN1CCN(Cc2ccc(NC(=O)c3cncc(C#Cc4c(N)ncc5ccccc45)c3)cc2C(F)(F)F)CC1	0.676 µM	1.35 µM	1.62 µM	4.7 µM	0.14 µM	1.47 µM	0.572 µM	1.26 µM	0.293 µM	0.998 µM	0.203 µM	0.885 µM	0.198 µM	0.853 µM	0.336 µM	1.04 µM	0.344 µM	1.04 µM	0.687 µM	1.73 µM
CC[C@H](C)[C@H](NC(=O)CN(C)C)C(=O)N(C)[C@H](C[C@@H](OC(C)=O)c1nc(C(=O)NC23C4C5C2C2C3C4C52C(=O)OC)cs1)C(C)C (stereo partly specified)	0.993 µM	21.5 µM	0.431 µM	> 20.1 µM	0.18 µM	> 33.2 µM	2.54 µM	> 33.2 µM	1.04 µM	> 33.2 µM	0.172 µM	> 33.2 µM	0.134 µM	> 33.2 µM	0.352 µM	4.62 µM	0.814 µM	> 33.2 µM	0.768 µM	> 33.2 µM
COc1ccc(/C=C\c2cc(OC)c(OC)c(OC)c2)cc1NC(=O)/C=C/c1cc(OC)c(OC)c(OC)c1	0.949 µM	> 100 µM	7.96 µM	77.4 µM	4.16 µM	> 100 µM	> 100 µM	> 100 µM	5.14 µM	> 100 µM	3.15 µM	> 100 µM	2.92 µM	> 100 µM	7.81 µM	> 100 µM	3.61 µM	> 100 µM	3.09 µM	> 100 µM
N#Cc1cnn(C(=O)c2nn(-c3ccc(Cl)cc3)cc2O)c1N	0.174 µM	0.626 µM	0.287 µM	7.17 µM	0.279 µM	4.03 µM	0.378 µM	10.4 µM	0.338 µM	13.1 µM	0.462 µM	8.01 µM	0.373 µM	10.5 µM	0.708 µM	19.2 µM	0.189 µM	0.507 µM	0.322 µM	7.28 µM
COC(=O)c1sc(-n2cnc3cc(OC)c(OC)cc32)cc1OCc1ccccc1C(F)(F)F	0.513 µM	> 25 µM	> 25 µM	> 25 µM	> 25 µM	> 25 µM	> 25 µM	> 25 µM	> 25 µM	> 25 µM	> 25 µM	> 25 µM	> 25 µM	> 25 µM	5.79 µM	> 25 µM	18.7 µM	> 25 µM	> 25 µM	> 25 µM
O=C1OC(c2ccccc2)=N/C1=C\c1ccccc1		> 100 µM	68.9 µM and 26.8 µM	> 100 µM		74.4 µM and 87.5 µM		> 100 µM	> 100 µM and 49 µM	> 100 µM		> 100 µM		> 100 µM		> 100 µM		> 100 µM		> 100 µM
COc1cc(/C=N/NC(=O)c2cnn3c2NC(c2ccccc2)C3)ccc1OCc1ccccc1 (stereo unspecified)	0.226 µM	2.5 µM	0.571 µM	4.85 µM	0.712 µM	> 100 µM	1.48 µM	12.4 µM	0.461 µM	6.68 µM	0.695 µM	4.45 µM	0.365 µM	14.6 µM	2.17 µM	9.39 µM	0.437 µM	1.66 µM	0.967 µM	3.23 µM
ClC/C=C/CSc1ncnc2nc[nH]c12	> 100 µM	> 100 µM	> 100 µM	> 100 µM	> 100 µM	> 100 µM	> 100 µM	> 100 µM	> 100 µM	> 100 µM	> 100 µM	> 100 µM	> 100 µM	> 100 µM	> 100 µM	> 100 µM	> 100 µM	> 100 µM	> 100 µM	> 100 µM
O=C(NCCN1CCOCC1)c1cc2c(Oc3ccc(NC(=O)C4(C(=O)Nc5ccc(F)cc5)CC4)cc3)ccnc2[nH]1	0.833 µM	11.8 µM	7.85 µM	> 54.8 µM	11 µM	> 100 µM	10.3 µM	> 100 µM	12.5 µM	> 100 µM	4.14 µM	> 52.8 µM	2.36 µM	33.2 µM	8.4 µM	30.7 µM	4.36 µM	> 100 µM	5.77 µM	64.6 µM
COc1oc(C2C/C(=C/C(C)=C/C(C)=C/C(C)=C/c3ccc([N+](=O)[O-])cc3)CO2)c(C)c(=O)c1C (stereo unspecified)		47.4 µM		17.4 µM		23.5 µM		82.6 µM		> 56.6 µM		> 100 µM		19 µM		38.9 µM		15.8 µM		18.4 µM
Nc1nc(N)c(CCCCc2ccc([N+](=O)[O-])cc2)c(N)n1		> 100 µM		> 100 µM		> 100 µM		> 100 µM		> 100 µM		> 100 µM		> 100 µM		> 100 µM		> 100 µM		> 100 µM
O=C(Nc1c[nH]c(=O)[nH]c1=O)Oc1ccccc1		> 100 µM		> 100 µM		> 100 µM		> 100 µM		> 100 µM		> 100 µM		> 100 µM		> 100 µM		> 100 µM		> 100 µM
COc1cc2c3c(c4ccc(O)cc4c2cc1OC)[C@@H](O)[C@@H]1CCCN1C3		0.00625 µM		0.027 µM		0.0073 µM		0.00625 µM		0.204 µM		0.00883 µM		< 0.001 µM		0.0078 µM		0.0155 µM		0.175 µM
C=C(CN1CCN(c2cc(C(F)(F)F)cc(C(F)(F)F)c2)CC1)c1ccc(C(=O)Nc2ccccc2N)cc1	2.04 µM	14.4 µM	5.04 µM	24.6 µM	1.49 µM	6.51 µM	11.7 µM	58.6 µM	3.96 µM	> 100 µM	3.76 µM	> 100 µM	0.839 µM	21.8 µM	1.06 µM	17.9 µM	4.09 µM	> 100 µM	2.92 µM	31 µM
O=C1c2ccccc2-c2cn(Cc3ccccc3)c3cccc(c23)C1c1cccnc1 (stereo unspecified)	1.34 µM	29.9 µM	6.62 µM	> 50 µM	2.62 µM	> 50 µM	9.61 µM	> 50 µM	2.54 µM	> 50 µM	3.89 µM	> 50 µM	1.64 µM	> 50 µM	4.18 µM	> 50 µM	1.9 µM	> 50 µM	5.94 µM	> 50 µM
Oc1ccccc1/C=N\NC(=S)Nc1ccc(F)cc1	4.65 µM	49.3 µM	2.35 µM	> 89.9 µM	0.396 µM		3.91 µM	> 50.4 µM	0.529 µM	> 100 µM	1.01 µM	3.57 µM	0.888 µM	> 100 µM	1.74 µM	> 100 µM	0.446 µM	18.1 µM	7.81 µM	> 100 µM
O=C(CC1(O)C(=O)Nc2ccc(Cl)cc21)c1ccc(C(=O)NCC2CCC3(CC2)OOC2(CCCCC2)OO3)cc1 (stereo unspecified)	10.2 µM	28 µM	3.01 µM	16.1 µM	1.22 µM	3.99 µM	1.59 µM	4.3 µM	3.06 µM	17.2 µM	4.41 µM	24.6 µM	2.37 µM	9.88 µM	2.68 µM	7.72 µM			1.88 µM	5.83 µM
